Laboratory results from ChEMBL document CHEMBL5532698, “2,3-Dihydroquinazolin-4(1H)-ones and quinazolin-4(3H)-ones as broad-spectrum cytotoxic agents and their impact on tubulin polymerisation” (RSC Med Chem, 2024).
Active and inactive are the calls of the source. The rule behind the calls is not given here.

What was measured:
NCI-H460 [1] = assay: Antiproliferative activity against human NCI-H460 cells assessed as cell growth inhibition incubated for 72 hrs by MTT assay; type: functional
A-431 [2] = assay: Antiproliferative activity against human A-431 cells assessed as cell growth inhibition incubated for 72 hrs by MTT assay; type: functional
[3] = Antiproliferative activity against human SJG2 cells assessed as cell growth inhibition incubated for 72 hrs by MTT assay; type: functional; details: SJ-G2
A-431 [4] = assay: Antiproliferative activity against human A-431 cells assessed as cell growth inhibition at 25 uM incubated for 72 hrs by MTT assay relative to control; type: functional
[5] = Cytotoxicity against human MCF-10A cells assessed as cell growth inhibition at 25 uM incubated for 72 hrs by MTT assay relative to control; type: toxicity, cell-based
HT-29 [6] = assay: Antiproliferative activity against human HT-29 cells assessed as cell growth inhibition at 25 uM incubated for 72 hrs by MTT assay relative to control; type: functional
[7] = Cytotoxicity against human MCF-10A cells assessed as cell growth inhibition incubated for 72 hrs by MTT assay; type: toxicity, cell-based
A2780 [8] = assay: Antiproliferative activity against human A2780 cells assessed as cell growth inhibition incubated for 72 hrs by MTT assay; type: functional
U-87 MG [9] = assay: Antiproliferative activity against human U87 cells assessed as cell growth inhibition at 25 uM incubated for 72 hrs by MTT assay relative to control; type: functional, U-87MG ATCC
[10] = Antiproliferative activity against human SJG2 cells assessed as cell growth inhibition at 25 uM incubated for 72 hrs by MTT assay relative to control; type: functional; details: SJ-G2
BE(2)-C [11] = assay: Antiproliferative activity against human BE2C cells assessed as cell growth inhibition at 25 uM incubated for 72 hrs by MTT assay relative to control; type: functional
MCF7 [12] = assay: Antiproliferative activity against human MCF7 cells assessed as cell growth inhibition at 25 uM incubated for 72 hrs by MTT assay relative to control; type: functional
MIA PaCa-2 [13] = assay: Antiproliferative activity against human MIA PaCa-2 cells assessed as cell growth inhibition incubated for 72 hrs by MTT assay; type: functional
HT-29 [14] = assay: Antiproliferative activity against human HT-29 cells assessed as cell growth inhibition incubated for 72 hrs by MTT assay; type: functional
Tubulin (Homo sapiens) [15] = molecular target: T1, Tubulin (Homo sapiens) (UniProt P68371+Q9H4B7+P0DPH7+P68366+Q13509+Q71U36+P04350+Q3ZCM7+P07437+P68363+Q9BQE3+Q6PEY2+Q13885+Q9BVA1+Q9BUF5); assay: Induction of tubulin (unknown origin) polymerization assessed as microtubule formation by measuring increase in fluorescence at 10 uM by fluorometric analysis; type: protein-complex assay
A2780 [16] = assay: Antiproliferative activity against human A2780 cells assessed as cell growth inhibition at 25 uM incubated for 72 hrs by MTT assay relative to control; type: functional
MCF7 [17] = assay: Antiproliferative activity against human MCF7 cells assessed as cell growth inhibition incubated for 72 hrs by MTT assay; type: functional
DU-145 [18] = assay: Antiproliferative activity against human DU-145 cells assessed as cell growth inhibition at 25 uM incubated for 72 hrs by MTT assay relative to control; type: functional
BE(2)-C [19] = assay: Antiproliferative activity against human BE2C cells assessed as cell growth inhibition incubated for 72 hrs by MTT assay; type: functional
U-87 MG [20] = assay: Antiproliferative activity against human U87 cells assessed as cell growth inhibition incubated for 72 hrs by MTT assay; type: functional, U-87MG ATCC
NCI-H460 [21] = assay: Antiproliferative activity against human NCI-H460 cells assessed as cell growth inhibition at 25 uM incubated for 72 hrs by MTT assay relative to control; type: functional
DU-145 [22] = assay: Antiproliferative activity against human DU-145 cells assessed as cell growth inhibition incubated for 72 hrs by MTT assay; type: functional
MIA PaCa-2 [23] = assay: Antiproliferative activity against human MIA PaCa-2 cells assessed as cell growth inhibition at 25 uM incubated for 72 hrs by MTT assay relative to control; type: functional
MIA PaCa-2 [24] = assay: Induction of G2/M phase cell cycle arrest in human MIA PaCa-2 cells assessed as G1 phase cells at 1.0 uM incubated for 24 hrs by PI/RNase staining based analysis (reference value: 66 +/- 2%); type: functional
MIA PaCa-2 [25] = assay: Induction of G2/M phase cell cycle arrest in human MIA PaCa-2 cells assessed as S phase cells at 5 uM incubated for 24 hrs by PI/RNase staining based analysis (reference value: 11 +/- 1%); type: functional
MIA PaCa-2 [26] = assay: Induction of G2/M phase cell cycle arrest in human MIA PaCa-2 cells at 1.0 uM incubated for 24 hrs by PI/RNase staining based analysis (reference value: 20 +/- 1%); type: functional
MIA PaCa-2 [27] = assay: Induction of G2/M phase cell cycle arrest in human MIA PaCa-2 cells at 5 uM incubated for 24 hrs by PI/RNase staining based analysis (reference value: 20 +/- 1%); type: functional
MIA PaCa-2 [28] = assay: Induction of G2/M phase cell cycle arrest in human MIA PaCa-2 cells assessed as sub G1 phase cells at 1.0 uM incubated for 24 hrs by PI/RNase staining based analysis (reference value: 4 +/- 2%); type: functional
Tubulin (Homo sapiens) [29] = molecular target: T1, Tubulin (Homo sapiens); assay: Inhibition of tubulin (unknown origin) polymerization assessed as reduction microtubule formation at 10 uM by fluorometric analysis; type: protein-complex assay
MIA PaCa-2 [30] = assay: Induction of G2/M phase cell cycle arrest in human MIA PaCa-2 cells assessed as S phase cells at 1.0 uM incubated for 24 hrs by PI/RNase staining based analysis (reference value: 11 +/- 1%); type: functional
MIA PaCa-2 [31] = assay: Induction of G2/M phase cell cycle arrest in human MIA PaCa-2 cells assessed as sub G1 phase cells at 5 uM incubated for 24 hrs by PI/RNase staining based analysis (reference value: 4 +/- 2%); type: functional
MIA PaCa-2 [32] = assay: Induction of G2/M phase cell cycle arrest in human MIA PaCa-2 cells assessed as G1 phase cells at 5 uM incubated for 24 hrs by PI/RNase staining based analysis (reference value: 66 +/- 2%); type: functional

GI50 (NCI-H460 [1]) [µM]	GI50 (A-431 [2]) [µM]	GI50 (A2780 [8]) [µM]	GI50 (MIA PaCa-2 [13]) [µM]	GI50 (HT-29 [14]) [µM]	GI50 (MCF7 [17]) [µM]	GI50 (U-87 MG [20]) [µM]	Structure (SMILES)	GI50 [3] [µM]	inhibition at 25 µM (A-431 [4]) [%]	inhibition at 72 h, 25 µM [5] [%]	inhibition at 25 µM (HT-29 [6]) [%]	GI50 at 72 h [7] [µM]	inhibition at 25 µM (U-87 MG [9]) [%]	inhibition at 25 µM [10] [%]	inhibition at 25 µM (BE(2)-C [11]) [%]	inhibition at 25 µM (MCF7 [12]) [%]	inhibition at 25 µM (A2780 [16]) [%]	inhibition at 25 µM (DU-145 [18]) [%]	GI50 (BE(2)-C [19]) [µM]	inhibition at 25 µM (NCI-H460 [21]) [%]	other results
2.2	2.6	2.6	2.9	0.9	0.47	10	COc1cccc(/C=C/c2nc3ccccc3c(=O)[nH]2)c1	2.8	> 100	95	> 100	2.2	75	100	99	> 100	> 100	78	2.1	> 100	Activity (Tubulin (Homo sapiens) [15]): inactive; GI50 (DU-145 [22]): 3.9 µM; inhibition at 25 µM (MIA PaCa-2 [23]): 93%
12	3.6	3.9	13	3.5	14	19	O=C1NC(CCc2ccccc2)Nc2ccccc21 (configuration not stated)	16	14	23	29	14	< 10	16	19	38	29	27	3.6	< 10	Activity (Tubulin (Homo sapiens) [15]; filed as activator): Active; GI50 (DU-145 [22]): 17 µM; inhibition at 25 µM (MIA PaCa-2 [23]): 27%
0.42	0.33	0.33	0.37	0.26	0.35	1.4	COc1ccccc1/C=C/c1nc2ccccc2c(=O)[nH]1	0.79	> 100	> 100	> 100	0.56	> 100	> 100	> 100	> 100	> 100	> 100	0.31	> 100	Activity (MIA PaCa-2 [24]): 56%; Activity (MIA PaCa-2 [25]): 6%; Activity (MIA PaCa-2 [26]): 27%; Activity (MIA PaCa-2 [27]): 78%; Activity (MIA PaCa-2 [28]): 5%; inhibition (Tubulin (Homo sapiens) [29]): Active; Activity (MIA PaCa-2 [30]): 12%; Activity (MIA PaCa-2 [31]): 6%; GI50 (DU-145 [22]): 0.9 µM; Activity (MIA PaCa-2 [32]): 10%; inhibition at 25 µM (MIA PaCa-2 [23]): > 100%
